In patent US20160002248A1, “GLS1 INHIBITORS FOR TREATING DISEASE” (Board of Regents, The University of Texas System, priority 2014, published 2016):

Key:
[1] = molecular target: T1, purified recombinant human GAC (GLS1) (Homo sapiens, UniProt O94925); assay: GLS1 Enzymatic Activity Assay (dual-coupled enzymatic assay); type: biochemical
T1 sequence (O94925 55-598 isoform O94925-3 limits assumed): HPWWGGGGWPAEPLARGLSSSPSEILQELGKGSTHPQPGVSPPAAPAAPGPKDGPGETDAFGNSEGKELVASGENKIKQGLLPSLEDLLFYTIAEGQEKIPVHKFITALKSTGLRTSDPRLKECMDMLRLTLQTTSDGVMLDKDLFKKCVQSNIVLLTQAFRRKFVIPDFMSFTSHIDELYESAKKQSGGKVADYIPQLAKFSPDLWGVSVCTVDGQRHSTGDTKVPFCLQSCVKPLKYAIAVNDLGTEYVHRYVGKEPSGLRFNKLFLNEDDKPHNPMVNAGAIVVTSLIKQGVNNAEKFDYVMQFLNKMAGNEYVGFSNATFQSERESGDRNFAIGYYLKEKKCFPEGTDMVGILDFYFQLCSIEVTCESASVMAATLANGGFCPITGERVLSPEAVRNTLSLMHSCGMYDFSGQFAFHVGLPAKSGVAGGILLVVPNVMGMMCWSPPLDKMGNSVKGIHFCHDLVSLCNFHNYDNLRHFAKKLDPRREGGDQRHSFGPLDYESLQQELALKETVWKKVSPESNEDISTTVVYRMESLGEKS
In short: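 GAC activity measured by coupling glutamate to glutamate oxidase and HRP, generating resorufin from Amplex UltraRed. Enzyme (2 nM) preincubated with 50 mM potassium phosphate 10 min at room temperature, then inhibitor 10 min; 1 mM glutamine substrate, 1% DMSO. Fluorescence 530/590 nm, kinetic or 20-min endpoint; IC50 from four-parameter logistic fit.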

A549 cells = assay: Proliferation Assay (A549 cell viability, Cell Titer Fluor); type: cell-based; details: Homo sapiens, 72 hours
In short: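 Compound was added to A549 cells (1000/well, pre-grown 24 h in RPMI 1640 plus 10% dialyzed FBS) at 0.5% DMSO and left 72 h under 37 °C, 5% CO2, ambient O2. Live-cell fluorescence (Cell Titer Fluor) gave the EC50.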

| SMILES | IC50 [1] [µM] | EC50 (A549 cells) [µM] |
| --- | --- | --- |
| O=C(NCc1ccccn1)c1cn(CCCCc2cc3c(Cc4ccc(Cl)nc4)c(C4CC4)[nH]c3nn2)nn1 [Example 114, 1-(4-(5-((6-chloropyridin-3-yl)methyl)-6-cyclopropyl-7H-pyrrolo[2,3-c]pyridazin-3-yl)butyl)-N-(pyridin-2-ylmethyl)-1H-1,2,3-triazole-4-carboxamide 2,2,2-trifluoroacetate] | < 0.1 | 0.5 to 5 |
| CCOC(=O)c1nnc(CCCCc2cc3cc(C4CC4)[nH]c3nn2)s1 [Example 115, ethyl 5-(4-{6-cyclopropyl-7H-pyrrolo[2,3-c]pyridazin-3-yl}butyl)-1,3,4-thiadiazole-2-carboxylate] | 0.1 to 0.5 | 0.5 to 5 |
| O=C(NCc1ccccn1)c1cn(CCCCc2cc3c(-c4cccc(Cl)c4)c(C4CC4)[nH]c3nn2)nn1 [Example 116, 1-{4-[5-(3-chlorophenyl)-6-cyclopropyl-7H-pyrrolo[2,3-c]pyridazin-3-yl]butyl}-N-(pyridin-2-ylmethyl)-1H-1,2,3-triazole-4-carboxamide] | < 0.1 | 0.5 to 5 |
| O=C(NCc1ccccn1)c1cn(CCCCc2cc3c(-c4ccc(Cl)cc4)c(C4CC4)[nH]c3nn2)nn1 [Example 117, 1-{4-[5-(4-chlorophenyl)-6-cyclopropyl-7H-pyrrolo[2,3-c]pyridazin-3-yl]butyl}-N-(pyridin-2-ylmethyl)-1H-1,2,3-triazole-4-carboxamide] | < 0.1 | 0.1 to 0.5 |
| O=C(NCc1cc(OC(F)(F)F)ccc1F)c1cn(CCCCc2cc3cc(C4CNC4)[nH]c3nn2)nn1 [Example 118, 1-{4-[6-(azetidin-3-yl)-7H-pyrrolo[2,3-c]pyridazin-3-yl]butyl}-N-{[2-fluoro-5-(trifluoromethoxy)phenyl]methyl}-1H-1,2,3-triazole-4-carboxamide] | < 0.1 | 0.5 to 5 |
| CC(=O)N1CC(c2cc3cc(CCCCn4cc(C(=O)NCc5cc(OC(F)(F)F)ccc5F)nn4)nnc3[nH]2)C1 [Example 119, 1-{4-[6-(1-acetylazetidin-3-yl)-7H-pyrrolo[2,3-c]pyridazin-3-yl]butyl}-N-{[2-fluoro-5-(trifluoromethoxy)phenyl]methyl}-1H-1,2,3-triazole-4-carboxamide] | < 0.1 | 0.5 to 5 |
| O=C(NCc1ccccn1)c1cn(CCCCc2cc3c(-c4ccccc4F)c(C4CC4)[nH]c3nn2)nn1 [Example 120, 1-{4-[6-cyclopropyl-5-(2-fluorophenyl)-7H-pyrrolo[2,3-c]pyridazin-3-yl]butyl}-N-(pyridin-2-ylmethyl)-1H-1,2,3-triazole-4-carboxamide] | < 0.1 | 0.1 to 0.5 |
| COc1cccc(-c2c(C3CC3)[nH]c3nnc(CCCCn4cc(C(=O)NCc5ccccn5)nn4)cc23)c1 [Example 121, 1-{4-[6-cyclopropyl-5-(3-methoxyphenyl)-7H-pyrrolo[2,3-c]pyridazin-3-yl]butyl)-N-(pyridin-2-ylmethyl)-1H-1,2,3-triazole-4-carboxamide] | < 0.1 | 0.1 to 0.5 |
| Cc1ccc(CNC(=O)c2cn(CCCCc3cc4c(-c5ccccc5F)c(C5CC5)[nH]c4nn3)nn2)cn1 [Example 122, 1-{4-[6-cyclopropyl-5-(2-fluorophenyl)-7H-pyrrolo[2,3-c]pyridazin-3-yl]butyl}-N-[(6-methylpyridin-3-yl)methyl]-1H-1,2,3-triazole-4-carboxamide] | < 0.1 | < 0.1 |
| O=C(NCc1ccccn1)c1cn(CCCCc2cc3c(-c4ccc(C(F)(F)F)cc4)c(C4CC4)[nH]c3nn2)nn1 [Example 123, 1-(4-{6-cyclopropyl-5-[4-(trifluoromethyl)phenyl]-7H-pyrrolo[2,3-c]pyridazin-3-yl}butyl)-N-(pyridin-2-ylmethyl)-1H-1,2,3-triazole-4-carboxamide] | < 0.1 | 0.1 to 0.5 |
| N#Cc1ccc(-c2c(C3CC3)[nH]c3nnc(CCCCn4cc(C(=O)NCc5ccccn5)nn4)cc23)cc1 [Example 124, 1-{4-[5-(4-cyanophenyl)-6-cyclopropyl-7H-pyrrolo[2,3-c]pyridazin-3-yl]butyl}-N-(pyridin-2-ylmethyl)-1H-1,2,3-triazole-4-carboxamide] | < 0.1 | 0.5 to 5 |
| O=C(NCc1ccccn1)c1cn(CCCCc2cc3c(-c4ccc(F)cc4)c(C4CC4)[nH]c3nn2)nn1 [Example 125, 1-{4-[6-cyclopropyl-5-(4-fluorophenyl)-7H-pyrrolo[2,3-c]pyridazin-3-yl]butyl}-N-(pyridin-2-ylmethyl)-1H-1,2,3-triazole-4-carboxamide] | < 0.1 | 0.1 to 0.5 |
| O=C(NCc1ccccn1)c1cn(CCCCc2cc3c(Cc4ccccn4)c(C4CC4)[nH]c3nn2)nn1 [Example 126, 1-{4-[6-cyclopropyl-5-(pyridin-2-ylmethyl)-7H-pyrrolo[2,3-c]pyridazin-3-yl]butyl}-N-(pyridin-2-ylmethyl)-1H-1,2,3-triazole-4-carboxamide] | 0.1 to 0.5 | 0.5 to 5 |
| O=C(NCc1cc(OC(F)(F)F)ccc1F)c1cn(CCCCc2cc3c(Cc4ccccn4)c(C4CC4)[nH]c3nn2)nn1 [Example 127, 1-{4-[6-cyclopropyl-5-(pyridin-2-ylmethyl)-7H-pyrrolo[2,3-c]pyridazin-3-yl]butyl}-N-{[2-fluoro-5-(trifluoromethoxy)phenyl]methyl}-1H-1,2,3-triazole-4-carboxamide] | < 0.1 | 0.1 to 0.5 |
| O=C(NCc1cc(OC(F)(F)F)ccc1F)c1cn(CCCCc2cc3c(-c4ccncc4)c(C4CC4)[nH]c3nn2)nn1 [Example 128, 1-{4-[6-cyclopropyl-5-(pyridin-4-yl)-7H-pyrrolo[2,3-c]pyridazin-3-yl]butyl)-N-{[2-fluoro-5-(trifluoromethoxy)phenyl]methyl}-1H-1,2,3-triazole-4-carboxamide] | < 0.1 | < 0.1 |
| O=C(NCc1ccccn1)c1cn(CCCCc2cc3c(-c4cncnc4)c(C4CC4)[nH]c3nn2)nn1 [Example 129, 1-(4-(6-cyclopropyl-5-(pyrimidin-5-yl)-7H-pyrrolo[2,3-c]pyridazin-3-yl)butyl)-N-(pyridin-2-ylmethyl)-1H-1,2,3-triazole-4-carboxamide] | 0.1 to 0.5 | 0.5 to 5 |
| CS(=O)(=O)N1CC(c2cc3cc(CCCCn4cc(C(=O)NCc5cc(OC(F)(F)F)ccc5F)nn4)nnc3[nH]2)C1 [Example 130, N-{[2-fluoro-5-(trifluoromethoxy)phenyl]methyl}-1-{4-[6-(1-methanesulfonylazetidin-3-yl)-7H-pyrrolo[2,3-c]pyridazin-3-yl]butyl}-1H-1,2,3-triazole-4-carboxamide] | < 0.1 | 0.1 to 0.5 |
| CC(C)OC(=O)N1CC(c2cc3cc(CCCCn4cc(C(=O)NCc5cc(OC(F)(F)F)ccc5F)nn4)nnc3[nH]2)C1 [Example 131, propan-2-yl 3-(3-{4-[4-({[2-fluoro-5-(trifluoromethoxy)phenyl]methyl}carbamoyl)-1H-1,2,3-triazol-1-yl]butyl}-7H-pyrrolo[2,3-c]pyridazin-6-yl)azetidine-1-carboxylate] | < 0.1 | < 0.1 |
| CCOC(=O)N1CC(c2cc3cc(CCCCn4cc(C(=O)NCc5cc(OC(F)(F)F)ccc5F)nn4)nnc3[nH]2)C1 [Example 132, ethyl 3-(3-{4-[4-({[2-fluoro-5-(trifluoromethoxy)phenyl]methyl}carbamoyl)-1H-1,2,3-triazol-1-yl]butyl)-7H-pyrrolo[2,3-c]pyridazin-6-yl)azetidine-1-carboxylate] | < 0.1 | < 0.1 |
| CC(C)(O)C(=O)N1CC(c2cc3cc(CCCCn4cc(C(=O)NCc5cc(OC(F)(F)F)ccc5F)nn4)nnc3[nH]2)C1 [Example 133, N-{[2-fluoro-5-(trifluoromethoxy)phenyl]methyl}-1-(4-{6-[1-(2-hydroxy-2-methylpropanoyl)azetidin-3-yl]-7H-pyrrolo[2,3-c]pyridazin-3-yl}butyl)-1H-1,2,3-triazole-4-carboxamide] | < 0.1 | 0.1 to 0.5 |
| O=C(NCc1ccccn1)c1cn(CCCCc2cc3cc(-c4ccccc4F)[nH]c3nn2)nn1 [Example 134, 1-(4-(6-(2-fluorophenyl)-7H-pyrrolo[2,3-c]pyridazin-3-yl)butyl)-N-(pyridin-2-ylmethyl)-1H-1,2,3-triazole-4-carboxamide] | < 0.1 | < 0.1 |
| Cn1nccc1-c1c(C2CC2)[nH]c2nnc(CCCCn3cc(C(=O)NCc4ccccn4)nn3)cc12 [Example 135, 1-{4-[6-cyclopropyl-5-(1-methyl-1H-pyrazol-5-yl)-7H-pyrrolo[2,3-c]pyridazin-3-yl]butyl}-N-(pyridin-2-ylmethyl)-1H-1,2,3-triazole-4-carboxamide] | < 0.1 | 0.5 to 5 |
| CS(=O)(=O)c1cccc(-c2c(C3CC3)[nH]c3nnc(CCCCn4cc(C(=O)NCc5ccccn5)nn4)cc23)c1 [Example 136, 1-{4-[6-cyclopropyl-5-(3-methanesulfonylphenyl)-7H-pyrrolo[2,3-c]pyridazin-3-yl]butyl}-N-(pyridin-2-ylmethyl)-1H-1,2,3-triazole-4-carboxamide] | < 0.1 | 0.5 to 5 |
